Among the data in patent US20200216416A1, “QUINOLINE COMPOUNDS AS INHIBITORS OF TAM AND MET KINASES” (Array BioPharma Inc., priority 2019, published 2020) are IC50, efflux ratio and Papp values, retold here.

Where two headings read alike, the source gives them in different places.

The target in series [1] is T1, His-tagged recombinant human AXL cytoplasmic domain (Homo sapiens, UniProt P30530).
T1 construct: His-tagged recombinant human AXL cytoplasmic domain
T1 sequence (P30530 473-894 limits assumed): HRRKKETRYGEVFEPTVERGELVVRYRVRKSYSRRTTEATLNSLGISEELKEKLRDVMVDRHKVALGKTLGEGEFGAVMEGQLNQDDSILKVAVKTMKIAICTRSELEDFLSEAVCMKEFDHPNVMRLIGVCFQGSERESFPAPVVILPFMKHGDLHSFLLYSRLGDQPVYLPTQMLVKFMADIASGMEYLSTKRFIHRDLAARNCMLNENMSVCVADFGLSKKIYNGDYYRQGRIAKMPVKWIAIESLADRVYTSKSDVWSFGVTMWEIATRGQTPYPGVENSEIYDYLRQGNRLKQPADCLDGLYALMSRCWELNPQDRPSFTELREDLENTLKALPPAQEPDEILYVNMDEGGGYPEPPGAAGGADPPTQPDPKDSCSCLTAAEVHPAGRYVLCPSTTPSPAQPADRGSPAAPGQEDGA
Description: AXL Enzyme Assay (LanthaScreen Eu Kinase Binding). To be noted: averaged IC50; 60-minute incubation at 22° C.; TR-FRET. The procedure: Compounds disclosed herein were screened for their ability to inhibit AXL kinase using Invitrogen's LanthaScreen™Eu Kinase Binding technology. His-tagged recombinant human AXL cytoplasmic domain was incubated with 20 nM Alexa-Fluor® Tracer 236 (PR9078A), 2 nM biotinylated anti-His (Cat. No. M4408), and 2 nM europium-labeled Streptavidin (Cat. No. PV5899) along with test compound in a buffer consisting of 25 mM HEPES, pH 7.4, 10 mM MgCl2, 0.01% Triton X-100, and 2% DMSO. Compounds were typically prepared in a threefold serial dilution in DMSO and added to the assay to give the appropriate final concentration. After a 60-minute incubation at 22° C., the reaction was measured using a PerkinElmer EnVision multimode plate reader via TR-FRET dual wavelength detection, and the percent of control (POC) was calculated using a ratiometric emission factor. […] The POC values are fit to a 4 parameter logistic curve and the IC50 value is point where the curve crosses 50 POC.

For series [2], the target named is T2, MET (wt) GST-tagged recombinant human MET kinase domain (Homo sapiens, UniProt P08581).
T2 construct: GST-tagged recombinant human MET kinase domain; purchased Signal Chem
Put plainly: c-Met Enzyme Assay, wild type (LanthaScreen Eu Kinase Binding). To be noted: averaged IC50; MET (wt) 10 nM; 60-minute incubation at 22° C.; read-out: SigChem WT IC50. The procedure:
The affinity of compound binding to wild type and mutant human MET kinases was measured using Invitrogen's LanthaScreen™ Eu Kinase Binding technology. Briefly, GST-tagged recombinant human MET kinase domain from Signal Chem (see Table 8 below for concentration in assay) was incubated with 50 nM Alexa-Fluor® Tracer 236 (Invitrogen Cat No. PR9078A) and 2 nM Europium-anti-GST (Invitrogen Cat. No. A15116) along with test compound in a buffer consisting of 25 mM HEPES, pH 7.4, 10 mM MgCl2, 0.01% Triton X-100, 1mM DTT, and 2% DMSO. Compounds were typically prepared in a three-fold serial dilution in DMSO and added to the assay to give the appropriate final concentration. After a 60-minute incubation at 22° C., the reaction was measured using a PerkinElmer EnVision multimode plate reader via TR-FRET dual wavelength detection, and the percent of control (POC) calculated using a ratiometric emission factor. […] The POC values were fit to a 4 parameter logistic curve and the IC50 value is point where the curve crosses 50 POC.

Series [3] deals with T3, MDR1 (P-gp) (Homo sapiens, UniProt P08183).
T3 construct: expressed in transfected cells; host or cells: LLC-PK1
Description: MDR1 LLC-PK1 permeability assay. The format is in vitro ADME. The settings on record: pig, MDR1 transfected LLC-PK1 cells; for Papp at 2 h, 1 μM: permeability coefficient (Papp). The procedure: MDR1 transfected LLC-PK1 cells were cultured and plated according to manufacturer's recommendations with the exception that the passage media contained only 2% fetal bovine serum to extend passage time out to seven days.
Both positive and negative controls were used to assess functionality of P-gp efflux in the assay. Stock solutions for assay controls and the test article were prepared in DMSO for final test concentrations of 10 and 1 μM, respectively. Final organic concentration in the assay was 1%. All dosing solutions contained 10 μM lucifer yellow to monitor LLC-PK1 cell monolayer integrity.
For the apical to basolateral determination (A to B), 75 μL of the test article in transport buffer were added to the apical side of the individual transwells and 250 μL of basolateral media, without compound or lucifer yellow, were added to each well. For the basolateral to apical determination (B to A), 250 μL of test article in transport buffer were added to each well and 75 μL transport buffer, without compound or lucifer yellow, were added to each transwell. All tests were performed in triplicate, and each compound was tested for both apical to basolateral and basolateral to apical transport. The plates were incubated for 2 hours on a Lab-Line Instruments Titer Orbital Shaker (VWR, West Chester, Pa.) at 50 rpm and 37° C. with 5% CO2. All culture plates were removed from the incubator and 50 μL of media were removed from the apical and basolateral portion of each well and added to 150 μL of 1 μM labetalol in 2:1 acetonitrile (acetonitrile): H2O, v/v.
The plates were read using a Molecular Devices (Sunnyvale, Calif.) Gemini Fluorometer to evaluate the lucifer yellow concentrations at excitation/emission wavelengths of 425/535 nm. These values were accepted when found to be below 2% for apical to basolateral and 5% basolateral to apical flux across the MDR1-transfected LLC-PK1-transfected cell monolayers. The plates were sealed and the contents of each well analyzed by LC-MS/MS. The compound concentrations were determined from the ratio of the peak areas of the compound to the internal standard (labetalol) in comparison to the dosing solution.
The LC-MS/MS system was comprised of an HTS-PAL autosampler (Leap Technologies, Carrboro, N.C.), an HP1200 HPLC (Agilent, Palo Alto, Calif.), and a MDS Sciex 4000 Q Trap system (Applied Biosystems, Foster City, Calif.). […] The total run time, including re-equilibration, for a single injection was 1.2 minutes. Mass spectrometric detection of the analytes was accomplished using the ion spray positive mode. Analyte responses were measured by multiple reaction monitoring (MRM) of transitions unique to each compound (the protonated precursor ion and selected product ions for each test article and m/z 329 to m/z 162 for labetalol, the internal standard).
The permeability coefficient (Papp) is calculated from the following equation: […]
where Cd, V, t and C0 are the detected concentration (μM), the volume on the dosing side (mL), the incubation time (s) and the initial dosing concentration (μM), respectively. The calculations for Papp were made for each replicate and then averaged. In this assay, a compound is defined has having high permeability if the permeability is greater than 8×10^−6 cm/sec, a compound is defined has having medium permeability if the permeability is from 2×10^−6 cm/sec to 8×10^−6 cm/sec, and a compound is defined has having low permeability if the permeability is less than 2×10^−6 cm/sec.
An efflux ratio was calculated from the mean apical to basolateral (A-B) Papp data and basolateral to apical (B-A) Papp data:
Efflux ratio=Papp(B−A)/Papp(A−B)

[4] abbreviates: LLC-PK1, Papp(B−A)/Papp(A−B), test article 1 μM, 2 hours, 37° C., read-out: Efflux ratio.
[5] abbreviates: LLC-PK1, efflux ratio = Papp(B-A)/Papp(A-B), read-out: MDR1 Pe Ratio.

T3 sequence (P08183 whole entry): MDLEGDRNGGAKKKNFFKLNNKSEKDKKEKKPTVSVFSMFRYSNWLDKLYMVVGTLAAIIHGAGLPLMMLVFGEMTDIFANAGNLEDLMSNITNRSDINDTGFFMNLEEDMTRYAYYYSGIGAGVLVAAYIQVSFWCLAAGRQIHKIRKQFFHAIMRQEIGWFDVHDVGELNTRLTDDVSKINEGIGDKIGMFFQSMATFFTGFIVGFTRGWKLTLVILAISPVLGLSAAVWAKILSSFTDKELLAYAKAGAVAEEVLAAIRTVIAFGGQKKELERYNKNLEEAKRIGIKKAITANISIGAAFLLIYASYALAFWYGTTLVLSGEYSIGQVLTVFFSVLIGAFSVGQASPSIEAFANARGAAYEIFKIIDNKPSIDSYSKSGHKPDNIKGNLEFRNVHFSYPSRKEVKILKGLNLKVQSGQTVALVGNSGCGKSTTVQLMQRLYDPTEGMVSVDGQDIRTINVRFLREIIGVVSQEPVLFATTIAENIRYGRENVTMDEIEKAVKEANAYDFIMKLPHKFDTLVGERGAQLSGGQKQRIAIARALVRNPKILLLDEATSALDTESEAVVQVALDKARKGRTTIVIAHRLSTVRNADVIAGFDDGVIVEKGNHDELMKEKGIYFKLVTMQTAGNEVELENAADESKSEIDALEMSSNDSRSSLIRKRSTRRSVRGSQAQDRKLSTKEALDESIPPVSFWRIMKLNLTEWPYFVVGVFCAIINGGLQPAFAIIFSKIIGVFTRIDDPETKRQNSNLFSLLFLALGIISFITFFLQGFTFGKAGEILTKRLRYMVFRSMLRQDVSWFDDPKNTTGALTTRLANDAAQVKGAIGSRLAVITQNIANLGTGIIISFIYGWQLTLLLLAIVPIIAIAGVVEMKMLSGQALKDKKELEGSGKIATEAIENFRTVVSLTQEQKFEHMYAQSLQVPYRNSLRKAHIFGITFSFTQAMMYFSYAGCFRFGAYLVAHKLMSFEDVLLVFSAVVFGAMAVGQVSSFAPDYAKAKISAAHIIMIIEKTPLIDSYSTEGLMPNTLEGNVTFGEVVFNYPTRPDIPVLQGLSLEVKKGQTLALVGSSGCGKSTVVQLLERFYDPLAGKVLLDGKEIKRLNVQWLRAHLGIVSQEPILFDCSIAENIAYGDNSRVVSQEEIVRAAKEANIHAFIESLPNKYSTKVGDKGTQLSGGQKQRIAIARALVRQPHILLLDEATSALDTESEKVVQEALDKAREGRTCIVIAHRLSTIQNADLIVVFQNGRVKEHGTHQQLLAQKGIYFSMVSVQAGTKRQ
T2 sequence (P08581 1078-1345 limits assumed): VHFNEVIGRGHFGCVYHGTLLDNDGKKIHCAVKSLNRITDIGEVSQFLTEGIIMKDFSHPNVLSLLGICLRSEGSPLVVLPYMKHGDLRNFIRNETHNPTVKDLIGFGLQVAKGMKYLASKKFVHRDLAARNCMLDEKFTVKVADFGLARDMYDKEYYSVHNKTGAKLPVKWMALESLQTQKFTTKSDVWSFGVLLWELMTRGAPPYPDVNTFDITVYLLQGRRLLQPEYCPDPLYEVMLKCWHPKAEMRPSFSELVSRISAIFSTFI

Consider `COc1ccc(-c2cn(C(C)C)cc(C(=O)Nc3ccc(Oc4ccnc5cc(OC)c(OC)cc45)cn3)c2=O)c(F)c1` [Example 31, N-(5-((6,7-dimethoxyquinolin-4yl)oxy)pyridin-2-yl)-5-(2-fluoro-4-methoxyphenyl)-1-isopropyl-4-oxo-1,4-dihydropyridine-3-carboxamide], for which the figures for the IC50 in series [1] and in series [2] were 1 nM and 41 nM, respectively. The efflux ratio at 2 h, 1 μM in series [3] (setting [4]) was 3.5; in series [3] (setting [5]), 2. In addition, the Papp at 2 h, 1 μM in series [3] turned out to be 11 ×10⁻⁶ cm/s.

Take `CCn1cc(C(=O)Nc2ccc(Oc3ccnc4ccc(OC)cc34)cn2)c(=O)c(-c2ccc(F)cc2)c1` [Example 39, 1-ethyl-5-(4-fluorophenyl)-N-(5-((6-methoxyquinolin-4-yl)oxy)pyridin-2-yl)-4-oxo-1,4-dihydropyridine-3-carboxamide]: the results for the IC50 in series [1] and in series [2] were 3 nM and 29.4 nM, respectively. In addition, the efflux ratio at 2 h, 1 μM in series [3] (setting [4]) came to 3.5; in series [3] (setting [5]) it was 0.9. The Papp at 2 h, 1 μM in series [3] is 7 ×10⁻⁶ cm/s.

Regarding `COc1cc2nccc(Oc3ccc(NC(=O)c4cn(CC(C)C)cc(-c5ccc(F)cc5)c4=O)nc3)c2cc1OC` [Example 11, N-(5-((6,7-dimethoxyquinolin-4-yl)oxy)pyridin-2-yl)-5-(4-fluorophenyl)-1-isobutyl-4-oxo-1,4-dihydropyridine-3-carboxamide], the IC50 in series [1] worked out at 5 nM; in series [2], 7.8 nM. Also, the efflux ratio at 2 h, 1 μM in series [3] (setting [5]) was 31.

In the case of `CCC(CC)n1cc(C(=O)Nc2ccc(Oc3ccnc4cc(OC)c(OC)cc34)cn2)c(=O)c(-c2ccc(F)cc2F)c1` [Example 16, 5-(2,4-difluorophenyl)-N-(5-((6,7-dimethoxyquinolin-4yl)oxy)pyridin-2-yl)-4-oxo-1-(pentan-3-yl)-1,4-dihydropyridine-3-carboxamide], the IC50 amounted to 4 nM in series [1] and 6.1 nM in series [2]. Further, the efflux ratio at 2 h, 1 μM is 3.5 in series [3] (setting [4]) and 2 in series [3] (setting [5]). The Papp at 2 h, 1 μM in series [3] worked out at 4 ×10⁻⁶ cm/s.

As to `COc1cc2nccc(Oc3ccc(NC(=O)c4cn(C(C)C)cc(-c5ccc(F)cc5F)c4=O)nc3)c2cc1OC` [Example 4], the IC50 in series [1] is 1 nM; in series [2], 2.1 nM. The results for the efflux ratio at 2 h, 1 μM in series [3] (setting [4]) and in series [3] (setting [5]) were 3.5 and 1.5, respectively. This molecule also yielded a Papp at 2 h, 1 μM in series [3] of 10 ×10⁻⁶ cm/s.

Consider `COc1cc2nccc(Oc3ccc(NC(=O)c4cn(CC(=O)N(C)C)cc(-c5ccc(Cl)cc5)c4=O)nc3)c2cc1OC` [Example 25], for which the results for the IC50 in series [1] and in series [2] were 2 nM and 8.2 nM, respectively. Also, the efflux ratio at 2 h, 1 μM in series [3] (setting [5]) was found to be 136. Besides, the Papp at 2 h, 1 μM in series [3] was 6.4 ×10⁻⁶ cm/s.

Turning to `COc1cc2nccc(Oc3ccc(NC(=O)c4cn(C(C)C)cc(-c5ccc(F)c(F)c5)c4=O)nc3)c2cc1OC` [Example 6], the IC50 in series [1] was determined as 2 nM; in series [2], 8.8 nM. The efflux ratio at 2 h, 1 μM in series [3] (setting [5]) turned out to be 4.9. Moreover, in series [3], the Papp at 2 h, 1 μM stood at 7 ×10⁻⁶ cm/s.

Regarding `COc1cc2nccc(Oc3ccc(NC(=O)c4cn(C(C)C)cc(-c5ccc(F)cc5)c4=O)cn3)c2cc1OC` [Example 58, N-(6-((6,7-dimethoxyquinolin-4-yl)oxy)pyridin-3-yl)-5-(4-fluorophenyl)-1-isopropyl-4-oxo-1,4-dihydropyridine-3-carboxamide], the IC50 in series [1] worked out at 1 nM; in series [2], 2.7 nM. Further, the efflux ratio at 2 h, 1 μM was 3.5 in series [3] (setting [4]) and 3 in series [3] (setting [5]). The molecule also displayed a Papp at 2 h, 1 μM in series [3] of 10 ×10⁻⁶ cm/s.

In the case of `COCCn1cc(C(=O)Nc2ccc(Oc3ccnc4cc(OC)c(OC)cc34)cn2)c(=O)c(-c2ccc(F)cc2)c1` [Example 7, N-(5((6,7-dimethoxyquinolin-4-yl)oxy)pyridin-2-yl)-5-(4-fluorophenyl)-1-(2-methoxyethyl)-4-oxo-1,4-dihydropyridine-3-carboxamide], the IC50 came out at 2 nM in series [1] and 3.1 nM in series [2]. Further, the efflux ratio at 2 h, 1 μM in series [3] (setting [5]) is 8.2. This molecule also came in with a Papp at 2 h, 1 μM in series [3] of 11 ×10⁻⁶ cm/s.

With `COc1cc2nccc(Oc3ccc(NC(=O)c4cn(C(C)C)cc(-c5ccc(F)cc5C)c4=O)nc3)c2cc1OC` [Example 19, N-(5-((6,7-dimethoxyquinolin-4yl)oxy)pyridin-2-yl)-5-(4-fluoro-2-methylphenyl)-1-isopropyl-4-oxo-1,4-dihydropyridine-3-carboxamide], the IC50 in series [1] was found to be 2 nM; in series [2], 1.8 nM. Further, the efflux ratio at 2 h, 1 μM came to 3.5 in series [3] (setting [4]) and 2.8 in series [3] (setting [5]). The molecule also came in with a Papp at 2 h, 1 μM in series [3] of 11 ×10⁻⁶ cm/s.

Consider `COc1cc2nccc(Oc3ccc(NC(=O)c4cn(C(C)C)c(C(C)C)c(-c5ccc(F)cc5)c4=O)nc3)c2cc1OC` [Example 38, N-(5-((6,7-dimethoxyquinolin-4yl)oxy)pyridin-2-yl)-5-(4-fluorophenyl)-1,6-diisopropyl-4-oxo-1,4-dihydropyridine-3-carboxamide], for which, in series [1], the IC50 is 3 nM. The Papp at 2 h, 1 μM in series [3] was 25 ×10⁻⁶ cm/s.

Usually IC50 stands for the concentration at which inhibition is half-maximal. As a reminder, the Papp is the rate of passage across a membrane or cell layer, normalised by area and donor concentration.
